Results on 24 molecules are retold here after patent publication US20220235068A1, “TETRACYCLIC COMPOUNDS AS CDC7 INHIBITORS” (Chia Tai Tianqing Pharmaceutical Group Co., Ltd., priority 2019, published 2022).

Each structure is given as a SMILES string. pIC50: −log10 of the molar value. Counter-ions that a name gives are not always drawn.

In one assay the target is T1, Cdc7/DBF4 (Homo sapiens, UniProt O00311).
T1 construct: purchased Promega
In words: Inhibitory effect against activity of Cdc7/DBF4 (ADP-Glo kinase detection kit). Format: biochemical. The note with it: 10 μM ATP, 25° C., 60 min. As for the experimental part: Cdc7/DBF4 kinase detection kit purchased from Promega; and
(§1) Nivo multi-marker analyzer (PerkinElmer).
An enzyme, a substrate, adenosine triphosphate and an inhibitor were diluted with the kinase buffer in the kit. A test compound was serially 5-fold diluted to an 8th concentration, i.e., from 10 μM to 0.13 nM, with the DMSO concentration being 5%, and the duplicate well experiment was set up. To a microplate were added 1 μL of inhibitors of various concentration gradients, 2 μL of CDCl7/DBF4 kinase (6.25 ng), 2 μL of a mixture of substrate and ATP (10 μM adenosine triphosphate, 0.2 μg/μL substrate), and the final concentration gradient of the compound was diluted from 2 μM to 0.025 nM. The reaction system was left reacting at 25° C. for 60 min. After the reaction was completed, 5 μL of ADP-Glo reagent was added to each well, and the reaction was continued at 25° C. for 40 min. After the reaction was completed, 10 μL of the kinase detection reagent was added to each well. After 30 min of reaction at 25° C., the chemiluminescence was read using the multi-marker analyzer with an integration time of 0.5 s.
The original data were converted to inhibition using the equation (Sample−Min)/(Max−Min)×100%, and the IC50 value was then curve fitted using four parameters (obtained from the “log(inhibitor) vs. response-Variableslope” model in GraphPadPrism). Table 1 provides the enzymatic inhibitory activity of the compounds disclosed herein against Cdc7/DBF4.

For a further assay, the system named is Colo205 cells. As to the kind of experiment: Inhibitory effect against Colo205 cell proliferation (CellTiter-Glo). The assay is classed as cell-based. The note with it: incubation 3 days. The method, then: 1640 medium; fetal bovine serum; penicillin/streptomycin antibiotics purchased from Wisent;
CellTiter-Glo (chemiluminescence detection reagent for cell viability) reagent purchased from Promega;
COL0205 cell line purchased from Wuhan Procell Life Science&Technology Co., Ltd; and
as §1
COL0205 cells were plated on to white 96-well plates by adding 80 μL of cell suspension (containing 3000 COL0205 cells) to each well. The cell plate was incubated in a CO2 incubator overnight.
A test compound was serially 3-fold diluted to an 8th concentration, i.e., from 2 mM to 920 nM, and the duplicate well experiment was set up. 78 μL of medium was added to an intermediate plate, 2 μL of the serially diluted compound was transferred to corresponding wells of the intermediate plate, and after mixing, the mixture was transferred to the cell plate at 20 μL per well. The concentration of the compound transferred to the cell plate ranged from 10 μM to 4.57 nM. The cell plate was incubated in a CO2 incubator for 3 days. Another cell plate was provided for reading signal values on the day of compound addition and these values were used as […] in data analysis. The chemiluminescence detection reagent for cell viability was added to this cell plate at 25 μL per well and the luminescence signals were stabilized by incubation at room temperature for 10 min. Readings were taken using the multi-marker analyzer. The chemiluminescence detection reagent for cell viability was added to the cell plate at 25 μL per well and the luminescence signals were stabilized by incubation at room temperature for 10 min. Readings were taken using the multi-marker analyzer.
The original data were converted to inhibition using the equation (Sample−Min)/(Max−Min)×100%, and the IC50 value was then curve fitted using four parameters (obtained from the “log(inhibitor) vs. response-Variableslope” model in GraphPadPrism). Table 2 provides the inhibitory activity of the compounds disclosed herein against COL0205 cell proliferation.

The test system of assay [1] is human colorectal cancer cell SW620. As to the kind of experiment: In vivo pharmacodynamic study in subcutaneous xenograft tumor nude mouse model of SW620. The note with it: 40 mg/kg, BID, p.o. The method, then:
Human colorectal cancer cell SW620 cells of the 7th passage were cultured in an L-15 medium containing 10% fetal bovine serum, 100 U/mL penicillin and 100 μg/mL streptomycin through in vitro monolayer culture in an incubator at 37° C./[…] for 4 passages with conventional medium replacement. At a cell saturation of 80-90%, the cells were digested with pancreatin-EDTA, counted and resuspended in PBS at a density of 5×10^6 cells/100 μL.
Cell inoculation: Each mouse was inoculated on the right cervical dorsum with 0.1 mL of the cell suspension of 5×10^6 SW620 cells in PBS. At an average tumor volume up to about 134 mm^3, the mice were randomly grouped and administrated.
Tumor diameters were measured twice weekly using a vernier caliper. The tumor volume was calculated using the following formula: V=0.5 a×b^2, where a and b represent the long diameter and short diameter of the tumor, respectively.
The anti-tumor therapeutic effect of the compound was evaluated by TGI (%) or relative tumor proliferation rate T/C (%). Relative tumor proliferation rate T/C (%)=TRTV/CRTV×100% (TRTV: RTV of treatment group; CRTV: RTV of negative control group). Relative tumor volumes (RTVs) were calculated from the tumor measurement results using the following formula: RTV=Vt/VO, where VO is the average tumor volume measured at the time of grouping (i.e., DO), Vt is the average tumor volume measured at a certain measurement, and TRTV and CRTV are taken from the data measured on the same day.
TGI (%), reflects the tumor growth inhibition rate. TGI (%)=[(1−(average tumor volume at the end of administration in a treatment group−average tumor volume at the start of administration of the treatment group))/(average tumor volume at the end of treatment of the vehicle control group−average tumor volume at the start of treatment of the vehicle control group)]×100%.
After day 22 of the grouping, mice were euthanized, plasma and tumors were sampled and tumors were weighed and photographed.

T1 sequence (O00311 whole entry): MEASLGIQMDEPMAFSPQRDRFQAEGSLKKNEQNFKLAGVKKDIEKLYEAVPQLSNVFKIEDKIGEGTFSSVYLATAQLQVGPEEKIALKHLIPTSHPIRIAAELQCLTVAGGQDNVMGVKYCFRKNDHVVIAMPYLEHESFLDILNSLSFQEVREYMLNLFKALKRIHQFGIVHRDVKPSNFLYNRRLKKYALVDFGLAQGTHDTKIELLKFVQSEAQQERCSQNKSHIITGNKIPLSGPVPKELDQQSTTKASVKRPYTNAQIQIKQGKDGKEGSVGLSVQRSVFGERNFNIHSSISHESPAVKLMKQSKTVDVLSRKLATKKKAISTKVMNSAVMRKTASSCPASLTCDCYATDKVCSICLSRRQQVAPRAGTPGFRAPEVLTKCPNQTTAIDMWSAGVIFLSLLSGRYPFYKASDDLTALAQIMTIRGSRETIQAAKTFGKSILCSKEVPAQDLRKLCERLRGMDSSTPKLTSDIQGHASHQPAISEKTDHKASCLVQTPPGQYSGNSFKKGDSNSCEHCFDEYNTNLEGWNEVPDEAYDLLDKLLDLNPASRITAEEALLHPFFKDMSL
T1 sequence (Q9UBU7 whole entry partner): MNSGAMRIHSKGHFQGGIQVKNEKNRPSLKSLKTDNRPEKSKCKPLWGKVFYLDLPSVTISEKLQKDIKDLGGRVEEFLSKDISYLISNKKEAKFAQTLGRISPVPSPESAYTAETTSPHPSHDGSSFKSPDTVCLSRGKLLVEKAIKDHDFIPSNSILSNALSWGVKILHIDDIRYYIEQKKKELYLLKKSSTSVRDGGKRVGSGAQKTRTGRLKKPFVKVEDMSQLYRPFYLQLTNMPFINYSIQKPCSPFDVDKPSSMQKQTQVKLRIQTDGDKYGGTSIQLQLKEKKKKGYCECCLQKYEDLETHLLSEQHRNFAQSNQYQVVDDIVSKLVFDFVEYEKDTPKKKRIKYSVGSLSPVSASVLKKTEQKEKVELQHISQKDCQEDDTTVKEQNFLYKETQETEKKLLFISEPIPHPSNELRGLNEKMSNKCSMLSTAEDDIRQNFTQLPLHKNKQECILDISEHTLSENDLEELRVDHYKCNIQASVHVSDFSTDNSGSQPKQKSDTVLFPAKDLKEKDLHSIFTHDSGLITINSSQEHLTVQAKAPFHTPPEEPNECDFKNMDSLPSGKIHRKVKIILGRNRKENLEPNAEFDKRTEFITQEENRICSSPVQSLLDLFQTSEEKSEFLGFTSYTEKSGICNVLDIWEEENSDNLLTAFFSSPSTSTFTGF

As usually defined, the pIC50 is the IC50 on a negative log10 scale, so that one unit is a factor of ten. Low readings indicate a large IC50, high ones a small IC50. Regarding `O=c1[nH]c([C@H]2CC3CCN2CC3)nc2c3c(sc12)-c1c[nH]nc1CCC3` (single isomer, unassigned) [Compound 1-2 hydrochloride], the pIC50 against Cdc7/DBF4 is 8.89; in the assay with Colo205 cells it was 7.27.

On Cdc7/DBF4, `O=c1[nH]c(C2CCCN2)nc2c3c(sc12)-c1c[nH]nc1CCC3` (single isomer, unassigned) [Compound 2-1 hydrochloride] showed a pIC50 of 8.43. Regarding `O=c1[nH]c(C2CCCN2)nc2c3c(sc12)-c1c[nH]nc1CCC3` (single isomer, unassigned) [Compound 2-2 hydrochloride], the pIC50 at Cdc7/DBF4 was 8.82. For the molecule `CN1CCCC1c1nc2c3c(sc2c(=O)[nH]1)-c1c[nH]nc1CCC3` (single isomer, unassigned) [Compound 3-1 hydrochloride], the pIC50 at Cdc7/DBF4 was 8.92. This pIC50 and that of the molecule before are within 0.2 log units of each other. Take `CN1CCCC1c1nc2c3c(sc2c(=O)[nH]1)-c1c[nH]nc1CCC3` (single isomer, unassigned) [Compound 3-2 hydrochloride]: the pIC50 against Cdc7/DBF4 was 9.38. Still for that read-out and setting: for `CC1(c2nc3c4c(sc3c(=O)[nH]2)-c2c[nH]nc2CCC4)CCCN1` (single isomer, unassigned) [Compound 4-1 hydrochloride] the value was 8.34; for `CC1(c2nc3c4c(sc3c(=O)[nH]2)-c2c[nH]nc2CCC4)CCCN1` (single isomer, unassigned) [Compound 4-2 hydrochloride], 8.17. For the molecule `CN1CCCC1(C)c1nc2c3c(sc2c(=O)[nH]1)-c1c[nH]nc1CCC3` (single isomer, unassigned) [Compound 5-1 hydrochloride], the pIC50 on Cdc7/DBF4 is 8.69. `CN1CCCC1(C)c1nc2c3c(sc2c(=O)[nH]1)-c1c[nH]nc1CCC3` (single isomer, unassigned) [Compound 5-2 hydrochloride] had a pIC50 on Cdc7/DBF4 of 8.63.

At Cdc7/DBF4, `CC(C)N1CCCC1c1nc2c3c(sc2c(=O)[nH]1)-c1c[nH]nc1CCC3` (single isomer, unassigned) [Compound 6-1 hydrochloride] gave a pIC50 of 8.77. As for `CC(C)N1CCCC1c1nc2c3c(sc2c(=O)[nH]1)-c1c[nH]nc1CCC3` (single isomer, unassigned) [Compound 6-2 hydrochloride], on Cdc7/DBF4, the pIC50 is 9.00. Take `CN1CCCCC1c1nc2c3c(sc2c(=O)[nH]1)-c1c[nH]nc1CCC3` (single isomer, unassigned) [Compound 7-1 formate]: on Cdc7/DBF4, the pIC50 was 8.51. On to `CN1CCCCC1c1nc2c3c(sc2c(=O)[nH]1)-c1c[nH]nc1CCC3` (single isomer, unassigned) [Compound 7-2 formate], for which the pIC50 against Cdc7/DBF4 is 8.57. Still for that read-out and setting: next, `O=c1[nH]c(C2CCCNC2)nc2c3c(sc12)-c1c[nH]nc1CCC3` (single isomer, unassigned) [Compound 8-1 hydrochloride]: 8.37; `O=c1[nH]c(C2CCCNC2)nc2c3c(sc12)-c1c[nH]nc1CCC3` (single isomer, unassigned) [Compound 8-2 hydrochloride]: 8.93. Regarding `CN1CCCC(c2nc3c4c(sc3c(=O)[nH]2)-c2c[nH]nc2CCC4)C1` (single isomer, unassigned) [Compound 9-1 hydrochloride], the pIC50 on Cdc7/DBF4 is 8.31. The same measure, in the same setting: for `CN1CCCC(c2nc3c4c(sc3c(=O)[nH]2)-c2c[nH]nc2CCC4)C1` (single isomer, unassigned) [Compound 9-2 hydrochloride] the value was 8.96.

As for `O=c1[nH]c(C2C3CCN2CC3)nc2c3c(sc12)-c1c[nH]nc1CCC3` (single isomer, unassigned) [Compound 14-1 hydrochloride], the pIC50 was 8.92 at Cdc7/DBF4 and 7.30 in the assay with Colo205 cells (Homo sapiens, COLO 205, 72 h). On Cdc7/DBF4, `O=c1[nH]c(C2C3CCN2CC3)nc2c3c(sc12)-c1c[nH]nc1CCC3` (single isomer, unassigned) [Compound 14-2 hydrochloride] gave a negative-log IC50 (pIC50) of 8.84. With `O=c1[nH]c(C2CCNCC2)nc2c3c(sc12)-c1c[nH]nc1CCC3` [Compound 10 hydrochloride], on Cdc7/DBF4, the pIC50 is 8.77. In the case of `CN1CCC(c2nc3c4c(sc3c(=O)[nH]2)-c2c[nH]nc2CCC4)CC1` [Compound 11 hydrochloride], the pIC50 at Cdc7/DBF4 was 8.31. This pIC50 is 0.46 log units lower than that of the molecule before. At Cdc7/DBF4, `CC1(c2nc3c4c(sc3c(=O)[nH]2)-c2c[nH]nc2CCC4)CCNCC1` [Compound 12 hydrochloride] gave a pIC50 of 8.86. With `CN1CCC(C)(c2nc3c4c(sc3c(=O)[nH]2)-c2c[nH]nc2CCC4)CC1` [Compound 13 hydrochloride], the pIC50 at Cdc7/DBF4 is 8.25. Compared with the last molecule, the pIC50 is 0.61 log units lower. In the case of `Cc1n[nH]cc1-c1cc2nc([C@@H]3CC4CCN3CC4)[nH]c(=O)c2s1` [TAK-931, reference compound], the “Tumor volume (Day 1)” value in assay [1] (Day 1) stood at 134 ± 13 mm^3. Further, in assay [1] (Day 21), the “RTV (Day 21)” value worked out at 1.36, the “T/C (%) (Day 21)” value was 16%, the “TGI (%) (Day 21)” value was found to be 96% and the “Tumor volume (Day 21)” value came out at 176 ± 27 mm^3.
